Data on eleven compounds can be found in paper PMC11571215, “Optimization of Antiproliferative Properties of Triimine Copper(II) Complexes” (Journal of Medicinal Chemistry, 2024).

Like-named read-outs stand apart in the source and are kept apart here.

Test [1] concerns HCT116-DoxR cells (doxorubicin resistant colorectal carcinoma). Nature of the test: MTS cell viability assay, HCT116-DoxR 2D. Type of test: cell-based, human. The following applies: for IC50: 48 h of exposure. Here is the method: (§1) The antiproliferative effect of the Cu(II) complexes in tumor and healthy cell lines was assessed through the MTS assay, a colorimetric method that is widely used to evaluate cellular viability, specifically mitochondrial viability.[53],[54] Cellular viability was determined after 48 h exposure to a concentration range (0.1–50 μM) of Cu(II) complexes in three tumor cell lines. […] Additionally, the viability of healthy primary dermal fibroblasts was performed as a comparison of the complexes’ antiproliferative effects in normal cells.
(§2) Cellular viability assays were performed using HCT116, HCT116-DoxR, and A2780 cancer cell lines as well as normal human primary fibroblasts. Cells were seeded at a density of 0.75 × 10^5 cells/mL in 96-well plates and incubated at 37 °C with 5% (v/v) CO2 for 24 h. After this incubation period, the copper complexes were accurately weighed and immediately dissolved in 100% (v/v) dimethyl sulfoxide (DMSO). Subsequently, the complexes were diluted to the final concentration using a cell culture medium. The culture medium in each well was replaced with fresh medium containing varying concentrations of the complexes (ranging from 0.01 to 50 μM). Negative controls contained culture medium with 0.1% (v/v) DMSO, and positive controls contained 0.4 μM Dox.
(§3) After an additional 48 h of incubation under the same conditions, cellular viability was assessed using the CellTiter 96 Aqueous One Solution Cell Proliferation Assay kit (Promega, Madison, USA). Metabolically active cells contain mitochondrial dehydrogenases that can reduce 3-(4,5-dimethylthiazol-2-yl)-5-(3-carboxymethoxyphenyl)-2-(4-sulfophenyl)-2H-tetrazolium, the inner salt (MTS) to formazan. The absorbance of formazan, measured at 490 nm in a microplate reader (Tecan Infinite M200, Tecan, Männedorf, Switzerland), is directly proportional to the number of viable cells.[104]
(§4) The cell viability versus concentration graphics were analyzed using Prism 8 software (GraphPad) to determine the half-maximal inhibitory concentration (IC50) of each complex for the respective cell line. Additionally, the selective index (SI) for each complex was calculated by dividing the IC50 of human fibroblasts by the IC50 values of the tested cancer cell lines.
(Tetrazolium dyes change colour on reduction, which living cells bring about.)

For test [2] the test system is unchanged. Also noted: method as in PMID 37311060. The following applies: previously determined; read-out: IC50 for the HCT116-DoxR cell line; cited from earlier work.
In test [3] the test system is HCT116 cells (colorectal carcinoma). On the set-up: method as in PMID 29688241. The following applies: previously published complex, cited from earlier work.
Test [4] relates to normal human primary dermal fibroblasts. Also noted: method as in PMID 29688241. The following applies: 48 h; previously published complex; cited from earlier work.
Test [5] concerns A2780 cells (ovarian carcinoma). Also noted: method as in PMID 29688241. The following applies: previously published complex, cited from earlier work.
For another test, the system named is HCT116-DoxR cells. Nature of the test: Autophagy induction (CYTO-ID green, flow cytometry). Format: cell-based, human. The conditions noted are these: 48 h; complexes at IC50, Dox 6 μM, Cis 5 μM, rapamycin 1500 nM. From the text: Furthermore, previous studies have shown that complexes containing terpyridine derivatives have the ability to trigger both apoptosis and autophagy cell death mechanisms in cancer cells simultaneously.[38] This convergence of death pathways may arise from an adaptive response of the heterogeneous tumor cell population.[38] In this context, understanding the mechanism by which cells lose viability in the presence of the two Cu(II) complexes with the simultaneous induction of apoptosis and autophagy becomes crucial. Autophagy is a highly conserved catabolic process crucial for maintaining cellular homeostasis but is also associated with type II programmed cell death.[75] It involves intracellular degradation through autophagolysosomes responsible for breaking down luminal content and enabling recycling of cellular components.[76],[77] The assessment of the complexes’ ability to induce autophagy was conducted using flow cytometry, employing the CYTO-ID green detection reagent. This probe emits green fluorescence, marking the autophagic vacuoles within the cell. Higher fluorescence indicates a greater proportion of autophagolysosomes.[78] Three positive controls were used: Dox, Cis, and rapamycin (1500 nM), whose concentration was previously optimized for the HCT116-DoxR cell line in the laboratory.[64] Rapamycin is known to induce autophagy through its mechanistic target, mTOR.
Cell death via autophagy was evaluated using the Autophagy Assay Kit (ab139484; Abcam, Cambridge, United Kingdom), according to the manufacturers’ instructions. HCT116-DoxR cells were seeded at a density of 1 × 10^5 cells/mL in 6-well plates for 24 h, under the same conditions described before. After this incubation period, the culture medium was replaced with a fresh medium containing the copper complexes under evaluation at their IC50 concentration. A 0.1% (v/v) DMSO solution was used as the negative (vehicle) control, and 6 μM Dox and 5 μM Cis were used as positive controls. The cells were incubated again for 48 h. Rapamycin (1500 nM) was also added as a positive control, and it was added 18 h before the end of the 48 h incubation. After this period, the supernatant was discarded, and each well was washed with PBS 1×. Subsequently, cells were detached using TrypLE Express and washed with phenol red-free DMEM medium containing 5% (v/v) FBS. Cells were incubated with Green Stain Solution in phenol red-free DMEM medium containing 5% (v/v) FBS for 30 min at RT. After this period, the samples were washed and then resuspended in Assay Buffer 1×. The samples were analyzed using an Attune Acoustic Focusing Flow Cytometer (Life Technologies, Carlsbad, USA), and the results were analyzed via the Attune Cytometric software.
A general note: Flow cytometry measures light scatter and fluorescence of single cells or particles in a stream.

In test [6] the test system is A2780 cells (ovarian carcinoma). Nature of the test: MTS cell viability assay, A2780. Format: cell-based, human. Here is the method:
as §1, §2, §3, §4

Test [7] relates to HCT116 cells (colorectal carcinoma). Nature of the test: MTS cell viability assay, HCT116 2D. Type of test: cell-based, human. The protocol:
as §1, §2, §3, §4

Test [8] relates to normal human primary dermal fibroblasts. Nature of the test: MTS cell viability assay, normal fibroblasts. The following applies: 48 h of exposure. Type of test: cell-based. The protocol:
as §1, §2
After an additional 48 h of incubation under the same conditions, cellular viability was assessed using the CellTiter 96 Aqueous One Solution Cell Proliferation Assay kit (Promega, Madison, USA). […] The absorbance of formazan, measured at 490 nm in a microplate reader (Tecan Infinite M200, Tecan, Männedorf, Switzerland), is directly proportional to the number of viable cells.[104]
as §4

[9] abbreviates: free ligands, at least two independent assays, read-out: IC50 of ligands HCT116-DoxR.
[10] abbreviates: 48 h of exposure, MTS, relative IC50, mean + SEM.

As usually defined, the IC50 is the concentration that inhibits the measured activity by half. For the compound `COc1ccc2cc(-c3cc(-c4nccs4)nc(-c4nccs4)c3)ccc2c1` [L2d], the IC50 in test [1] (setting [9]) is ~14600 nM.

Regarding `CC(C)(C)OO` [TBHP, Tert-butyl hydroperoxide], in test [2], the half-inhibitory concentration (IC50) was 42000 nM.

`c1ccc(-c2cc(-c3cccc4ccccc34)cc(-c3ccccn3)n2)nc1` [L1a]: the IC50 in test [1] (setting [9]) is ~180 nM.

On to `COc1ccc2cc(-c3cc(-c4ccccn4)nc(-c4ccccn4)c3)ccc2c1` [L1d], for which the half-maximal inhibitory concentration (IC50) in test [1] (setting [9]) was 200 ± 50 nM.

On to `c1ccc2c(-c3cc(-c4nccs4)nc(-c4nccs4)c3)cccc2c1` [L2a], for which, in [1] (setting [9]), the IC50 was > 50000 nM.

Regarding `c1ccc2cc(-c3cc(-c4nccs4)nc(-c4nccs4)c3)ccc2c1` [L2b], the 50% inhibitory concentration (IC50) in [1] (setting [9]) was > 50000 nM.

For the compound `c1ccc(-c2cc(-c3ccc4ccccc4c3)cc(-c3ccccn3)n2)nc1` [L1b], the IC50 in [1] (setting [9]) is 240 ± 400 nM.

For `COc1ccc(-c2cc(-c3ccccn3)nc(-c3ccccn3)c2)c2ccccc12.[Cl][Cu][Cl]` [Cu1c], the results for the 50% inhibitory concentration (IC50) in test [3] (48 h), in [4] and in [5] (48 h) were 400 ± 60 nM, 32780 ± 60 nM and 950 ± 50 nM, respectively. Also, the “SI HCT116” value in test [3] (IC50 fibroblasts / IC50 HCT116) is given as 82. Also, the “SI A2780” value in [5] (IC50 fibroblasts / IC50 A2780) was 34.5.

In the case of `CO[C@H]1C[C@@H]2CC[C@@H](C)[C@@](O)(O2)C(=O)C(=O)N2CCCC[C@H]2C(=O)O[C@H]([C@H](C)C[C@@H]2CC[C@@H](O)[C@H](OC)C2)CC(=O)[C@H](C)/C=C(\C)[C@@H](O)[C@@H](OC)C(=O)[C@H](C)C[C@H](C)/C=C/C=C/C=C/1C` [rapamycin, Rapamycin], the “increase in autophagic vesicles compared to 0.1% DMSO control” value in the test on HCT116-DoxR cells is “increase in green fluorescence intensity”.

On to `COc1ccc(-c2cc(-c3nccs3)nc(-c3nccs3)c2)c2ccccc12` [L2c], for which the IC50 in [1] (setting [9]) was ~11500 nM.

In the case of `COc1ccc2cc(-c3cc4[n+]5c(c3)-c3cccc[n+]3[Cu-3]5([Cl])([Cl])[n+]3ccccc3-4)ccc2c1` [Cu1d], the IC50 in test [6] (setting [10]) amounted to 480 ± 80 nM; in test [7] (setting [10]), 360 ± 40 nM; in [1] (MTS, relative IC50, mean + SEM, read-out: IC50 HCT116-DoxR (2D)), 310 ± 10 nM; in [8], 6420 ± 500 nM. For the same compound, the “SI A2780” value in test [6] (ratio IC50 fibroblasts / IC50 A2780) was found to be 13.4. The “SI HCT116” value in test [7] (ratio IC50 fibroblasts / IC50 HCT116) was determined as 17.8. For the same compound, in test [1] (ratio IC50 fibroblasts / IC50 HCT116-DoxR), the “SI HCT116-DoxR” value is 20.7.
